Measured values as given in patent publication EP0533925A1, “OPTICAL ISOMER OF R-FORM OF DIPHENYL ETHER DERIVATIVE AND HERBICIDE CONTAINING THE SAME AS ACTIVE INGREDIENT” (TEIJIN LIMITED, priority 1990, dated 1991).

Experiments:
Assay in all cases: Herbicidal activity, foliar application of single compounds (Test Examples 1 to 5)
Assay type in all cases: in vivo
Design in all cases: key: 0 means the state where the plants are as sound as before the application of the active compound; 1, 2, 3 and 4 mean varying degrees of the enfeebled state of the plants between 0 and 5; 1, 2, 3 and 4 mean varying degrees of the enfeebled state of the plants between 0 and 5; 1, 2, 3 and 4 mean varying degrees of the enfeebled state of the plants between 0 and 5; 1, 2, 3 and 4 mean varying degrees of the enfeebled state of the plants between 0 and 5; 5 is the state where the plants are withered or killed by application of the active compound
Conditions in all cases: Rate of Application 0.031 kg/ha; 3 weeks after application
Astragalus sinicus = test system: Astragalus sinicus
Experimental: (§1) In these examples, all parts means parts by weight, unless otherwise noted. The herbicidal activity was evaluated on a scale of 6 degrees. In other words, 0 means the state where the plants are as sound as before the application of the active compound, while 5 is the state where the plants are withered or killed by application of the active compound, and 1, 2, 3 and 4 mean varying degrees of the enfeebled state of the plants between 0 and 5.
(§2) The diphenyl ethers shown in Table 2 were added to 5000 parts of a mixture of acetone and water (1 : 1 by volume), and 2.6 parts of a nonionic surfactant (Sorpol 2680, tradename) was added to form a solution, so that the ether becomes the prescribed amount in each solution.
(§3) Seeds of plants were sown in the soil, cultivated for 2 to 3 weeks, after germination, then the plants were used for the tests.
(§4) The prepared solution was applied to these plants at the prescribed rate of application in total, then the plants were continuously cultivated for 3 weeks without applying the solution.
(§5) The alphabetical symbols in Tables 2 and 3 represent the following plants, respectively: a: Digitaria adscendens b: Setaria viridis c: Sorghum halepense d: Chenopodium album var. centrorubrum e: Amaranthus mangostanus f: Astragalus sinicus g: Abutilon theophrosti h: Solanum nigrum i: Xanthium strumarium j: Soybean; Glycine max k: Corn; Zea mays Table 2

Amaranthus mangostanus = test system: Amaranthus mangostanus
Experimental: as §1, §2, §3, §4, §5

Abutilon theophrosti = test system: Abutilon theophrosti
Experimental: as §1, §2, §3, §4, §5

Setaria viridis = test system: Setaria viridis
Experimental: as §1, §2, §3, §4, §5

Digitaria adscendens = test system: Digitaria adscendens
Experimental: as §1, §2, §3, §4, §5

[1] = test system: Chenopodium album var. centrorubrum
Experimental: as §1, §2, §3, §4, §5

Xanthium strumarium = test system: Xanthium strumarium
Experimental: as §1, §2, §3, §4, §5

Solanum nigrum = test system: Solanum nigrum
Experimental: as §1, §2, §3, §4, §5

Soybean; Glycine max = test system: Soybean; Glycine max
Experimental: as §1, §2, §3, §4, §5

Corn; Zea mays = test system: Corn; Zea mays
Experimental: as §1, §2, §3, §4, §5

Sorghum halepense = test system: Sorghum halepense
Experimental: as §1, §2, §3, §4, §5

## COC(=O)[C@H](C)Oc1cc(Oc2ccc(C(F)(F)F)cc2Cl)ccc1C#N [S-enantiomer (1), S-enantiomer of methyl α-[2-cyano-5-(2-chloro-4-trifluoromethylphenoxy)phenoxy]propionate, reference compound]
Astragalus sinicus
  herbicidal activity, Plants f: 1
Amaranthus mangostanus
  herbicidal activity, Plants e: 0
Abutilon theophrosti
  herbicidal activity, Plants g: 1
Setaria viridis
  herbicidal activity, Plants b: 0
Digitaria adscendens
  herbicidal activity, Plants a: 1
[1]
  herbicidal activity, Plants d: 1
Xanthium strumarium
  herbicidal activity, Plants i: 0
Solanum nigrum
  herbicidal activity, Plants h: 2
Soybean; Glycine max
  herbicidal activity, Plants j: 1
Corn; Zea mays
  herbicidal activity, Plants k: 0
Sorghum halepense
  herbicidal activity, Plants c: 1
